Measurements reported in patent US20220073638A1, “METHODS AND PHARMACEUTICAL COMPOSITION FOR THE TREATMENT OF CANCERS RESISTANT TO IMMUNE CHECKPOINT THERAPY” (INSERM (INSTITUT NATIONAL DE LA SANTÉ ET DE LA RECHERCHE …, priority 2018, published 2022).

System: CD163+ TAMs
Format: in vivo, mouse
Method: To deplete CD163^+ TAM we generated knock-in mice expressing iCre recombinase from a Cd163-IRES-iCre transcript (CD163-iCre) and crossed them to Csflr-LSL-DTR mice that after cre-mediated deletion of LSL, have DTR expression under the control of the Csflr promotor. A single injection of 4 ng/kg diphteria toxin (DT) specifically depleted close to 50% of CD163+ TAMs after 24 hrs (data not shown). No effect, was observed on the remaining myeloid compartment except for a small increase in recruited monocytes (data not shown). Next, we attempted to achieve sustained depletion of CD163+ TAMs by repeated DT injections.

diphteria toxin [DT]
side effects of sustained depletion of CD163+ macrophages (repeated DT injections): severe side-effect
tumor growth (repeated DT injections, CD163-iCre+/-, Csf1r-LSL-DTR+/- mice compared to Csf1r-LSL-DTR wildtype mice): significantly reduced tumor growth
depletion of CD163+ TAMs (single injection of 4 ng/kg DT, after 24 hrs): ~50%
effect on the remaining myeloid compartment (single injection of 4 ng/kg DT, except for a small increase in recruited monocytes): No effect
